Columns and labels:
CRAC channel = biological target: T1, CRAC channel (Homo sapiens, UniProt Q96D31); assay: HEK Calcium Influx Assay (FLIPR); type: cell-based; details: 10 μM; endogenous SOC in HEK293 cells, thapsigargin store depletion, Ca2+ signal 9.5-10 min post-administration; read-out: % inhib.[@ 10 μM] FLIPR
T1 construct: host or cells: HEK293

[1] = system: Interleukin-2 (IL-2) production/release; assay: Jurkat IL-2 Production Assay; type: cell-based; details: Homo sapiens; Jurkat T cells clone E6-1, 15 μg/ml PHA for 22 hours, IL-2 in supernatant
Description: Jurkat IL-2 Production Assay
The effect of compounds of the invention on Interleukin-2 (IL-2) production/release was tested in the Jurkat T cell line (ECACC) clone E6-1.
Jurkat T cells were cultured in DMEM/F12/Glutamax (Gibco) containing 10% FCS (Gibco), and maintained at 37° C., 5% CO2. Cell were split twice a week [5*10^6 (Mon-Thu) and 1*10^7 (Thu-Mon) cells/50 ml medium in T-175 ZK culture flasks, respectively].
Prior to experiment, cells were seeded on 96 well plates (Cellstar 96 Well; Cat No. 655180, Greiner bio-one) at a density of 5*10^5 cells/well in DMEM/F12/Glutamax (Gibco) containing 10% FCS (Gibco), and incubated for 60 min at 37° C., 5% CO2. Subsequently, compounds were added and cells were allowed to incubate for 30 min at 37° C., 5% CO2. Cells were then stimulated with 15 μg/ml Phytohemagglutinin (PHA; Sigma) for 22 hours at 37° C., 5% CO2.
Before sampling of the supernatants, cells were spun down (200*g/5 min/RT). The amount of IL-2 released into the supernatant was quantified with the human IL-2 AlphaLisa kit (Perkin Elmer) according to manufacturer's instructions. Luminescence proximity measurements were carried out in the Synergy H4 reader (BioTek) employing the fluorescence setting of the reader (ex: 680/30 nm; em: 620/40 nm).
Inhibition of IL-Production/Release in/from Jurkat T Cells was Quantified as Follows:
Zero percent inhibition (MAX) was defined as the [IL-2] determined in supernatants derived from cells to which PHA & DMSO-only had been added instead of compound. Hundred percent inhibition (MIN) was defined as the [IL-2] determined in supernatants derived from cells that had been pre-treated with 1 μM CyclosporineA (Sigma) before the addition of 15 μg/ml PHA.
For routine IC50 determinations of compounds, 8 concentrations of a serial dilution (1:3.16) were tested, starting off from 10 μM.

T1 sequence (Q96D31 whole entry): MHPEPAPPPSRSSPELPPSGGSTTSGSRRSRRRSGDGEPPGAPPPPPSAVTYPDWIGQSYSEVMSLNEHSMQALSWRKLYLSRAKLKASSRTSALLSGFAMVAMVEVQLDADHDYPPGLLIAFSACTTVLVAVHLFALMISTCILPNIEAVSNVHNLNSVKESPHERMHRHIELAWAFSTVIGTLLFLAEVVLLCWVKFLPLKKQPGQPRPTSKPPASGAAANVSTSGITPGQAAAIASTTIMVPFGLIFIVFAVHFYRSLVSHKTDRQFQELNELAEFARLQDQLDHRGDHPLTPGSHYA

inhibition at 10 µM (CRAC channel) [%] | IC50 [1] [µM] | Structure (SMILES)
> 70 | 1 to 5 | Cn1nc(C(=O)Nc2ccncc2F)cc1-c1cc(OC(F)(F)F)ccc1C1CC1 [Example 47, 5-[2-Cyclopropyl-5-(trifluoromethyloxy)-phenyl]-N-(3-fluoro-pyridin-4-yl)-1-methyl-1H-pyrazole-3-carboxylic acid amide]
> 70 | 1 to 5 | Cn1nc(C(=O)Nc2c(F)cncc2F)cc1-c1c(F)cccc1C(F)(F)F [Example 49, N-(3,5-Difluoro-pyridin-4-yl)-5-[2-fluoro-6-(trifluoromethyl)-phenyl]-1-methyl-1H-pyrazole-3-carboxylic acid amide]
50 to 70 | 1 to 5 | Cn1nc(C(=O)Nc2c(F)cccc2F)cc1-c1c(F)cccc1C(F)(F)F [Example 51, N-(2,6-Difluoro-phenyl)-5-[2-fluoro-6-(trifluoromethyl)-phenyl]-1-methyl-1H-pyrazole-3-carboxylic acid amide]
< 50 | 1 to 5 | COc1cc(S(C)(=O)=O)ccc1-c1cc(C(=O)Nc2c(F)cccc2F)nn1C [Example 66, N-(2,6-Difluoro-phenyl)-5-(2-methoxy-4-methylsulfonyl-phenyl)-1-methyl-1H-pyrazole-3-carboxylic acid amide]
< 50 | 1 to 5 | CNc1c(C(=O)Nc2c(F)cncc2F)nn(C)c1-c1cc(OC)ccc1OC [Example 67, N-(3,5-Difluoro-pyridin-4-yl)-5-(2,5-dimethoxyphenyl)-1-methyl-4-methylamino-1H-pyrazole-3-carboxylic acid amide]
